Data on 15 molecules can be found in patent US20230405003A1, “APPLICATION OF THYMIDINE DERIVATIVE IN PREPARATION OF DRUGS” (ONQUALITY PHARMACEUTICALS CHINA LTD., priority 2020, published 2023).

For this series, the system named is HaCaT cells. The experiment in a line: Relief of 5-FU proliferative toxicity to HaCaT cells (CCK-8 cell survival). Format: cell-based. Particulars: for activation at 1 µM: compound 1 μM; for activation at 5 µM: compound 5 μM; for activation at 10 µM: compound 10 μM; for activation at 50 µM: compound 50 μM; for activation at 100 µM: compound 100 μM; for activation at 200 µM: compound 200 μM; for activation at 500 µM: compound 500 μM; for activation at 1000 µM: compound 1000 μM; for Cell Survival Rate (increased percentage of cell survival compared with the Group of 5-FU): 5-Fu 20 μM, HaCaT cells; for activation at 1500 µM: compound 1500 μM. The method, then: The cultured skin cell HaCaTs were digested, counted, and inoculated into a 96-well plate with 5000-10000 cells in each well. After 24 h of culture, the wells were divided into Group of blank solvent control, Group of 5-FU, Group of 5-FU+thymidine derivative, Group of 5-FU+the combination of thymidine derivative and uridine derivative. […] adding a solution of 5-FU and a solution of thymidine derivative (the final concentrations of 5-FU and thymidine derivative are shown in Table 3, the solution of thymidine is an aqueous solution, while the solutions of thymidine derivatives are all DMSO solutions); Group of 5-FU+the combination of thymidine derivative and uridine derivative: adding a solution of 5-FU and a mixed solution of thymidine derivative and uridine derivative (the final concentrations of the solution of 5-FU and the mixed solution of thymidine derivative+uridine derivative are shown in Table 3, the solution of thymidine is an aqueous solution, while the mixed solutions of thymidine derivative+uridine derivative are all DMSO solutions); Group of blank solvent control: adding the same type of solution as those of the corresponding Group of 5-FU or Group of 5-FU+thymidine derivative (or the mixed solution of thymidine derivative+uridine derivative) in equal volume. Group of blank solvent control was used as control to exclude the influence of the solvents in Group of 5-FU and Group of 5-FU+thymidine derivative (or the mixed solution of thymidine derivative+uridine derivative) on the results. After additional 48 hours of culture, a Cell Counting Kit-8 (CCK-8) detection kit (C0037, purchased from Shanghai Beyotime Biotechnology) is used to determine the cell survival rate, thereby calculating the proliferative toxicity of 5-Fu/5-DFUR on cells and the relieving effect of the thymidine derivative (or the mixed solution of thymidine derivative+uridine derivative) on the proliferative toxicity. Using GraphPad Prism 6.0 software, the results were statistically analyzed by t-test and plotted.
Table 3 lists the combinations of 5-FU and thymidine derivative (or the mixed solution of thymidine derivative+uridine derivative), and the corresponding experimental results (wherein the data in the column of cell survival indicate the corresponding increased percentage of the cell survivals of Group of 5-FU+thymidine derivative or Group of 5-FU+the combination of thymidine derivative and uridine derivative compared with the Group of 5-FU). FIGS. 3-10 list the experimental results of several representative compounds.
The effect of thymidine derivative or a combination of thymidine derivative and uridine derivative on relieving the proliferative toxicity of a chemotherapeutical drug (5-FU) to HaCaT cells was tested according to the method in Examples 2-29. The test thymidine derivative or the combination of thymidine derivative and uridine derivative, as well as the final concentration of the test compounds were shown in Table 7.
Table 7 lists the combinations of 5-FU and thymidine derivative (or the mixed solution of thymidine derivative+uridine derivative), and the corresponding experimental results (wherein the data in the column of cell survival indicate the corresponding increased percentage of the cell survivals of Group of 5-FU+thymidine derivative or Group of 5-FU+the combination of thymidine derivative and uridine derivative compared with the Group of 5-FU). FIGS. 15-21 list the experimental results of several exemplary compounds.

Where [1] appears, read: Homo sapiens, HaCaT, increase vs Group of 5-FU, 5-FU 20 μM, 48 h, read-out: Cell Survival Rate.
Setting [2] is: selected compound final concentration 3.13 μM.
The mark [3] stands for this setting: selected compound final concentration 6.25 μM.
[4] abbreviates: selected compound final concentration 12.5 μM.
Where [5] appears, read: selected compound final concentration 25 μM.
Setting [6] is: selected compound final concentration 50 μM.
The mark [7] stands for this setting: selected compound final concentration 100 μM.

As to `Cc1cn([C@H]2C[C@H](O)[C@@H](COC(=O)OC3CC3)O2)c(=O)[nH]c1=O` [T11], under setting [1], the activation at 1 µM is -5 to 0%, the activation at 5 µM is 11 to 16%, the activation at 10 µM was 27 to 33% and the activation at 50 µM lay in the range of 35 to 45%. Further, under setting [1], the activation at 100 µM was 38 to 45%, the activation at 200 µM lay within 38 to 46%, the activation at 500 µM was 40 to 50% and the activation at 1000 µM was 7 to 14%.

Regarding `Cc1cn([C@H]2C[C@H](OC(=O)C(C)c3cccc(Oc4ccccc4)c3)[C@@H](CO)O2)c(=O)[nH]c1=O` (some centres unmarked) [T43], the “Cell Survival Rate (increased percentage of cell survival compared with the Group of 5-FU)” value is, setting by setting: (selected compound final concentration 0.8 μM) 23%-31%; (selected compound final concentration 1.6 μM) 49%-56%; under setting [2], 72%-79%; under setting [3], 91%-98%; under setting [4], 125%-133%; under setting [5], 99%-106%. For the same molecule, the “Cell Survival Rate (increased percentage of cell survival compared with the Group of 5-FU)” value under setting [6] is 100%-107% and the “Cell Survival Rate (increased percentage of cell survival compared with the Group of 5-FU)” value under setting [7] is recorded as 34%-41%.

Consider `Cc1cn([C@H]2C[C@H](O)[C@@H](COC(=O)C3CCn4c(C(=O)c5ccccc5)ccc43)O2)c(=O)[nH]c1=O` (some centres unmarked) [T34], for which the “Cell Survival Rate (increased percentage of cell survival compared with the Group of 5-FU)” value under setting [4] was 28%-35%, the “Cell Survival Rate (increased percentage of cell survival compared with the Group of 5-FU)” value under setting [5] is 43%-51%, the “Cell Survival Rate (increased percentage of cell survival compared with the Group of 5-FU)” value under setting [6] is listed as 69%-77% and the “Cell Survival Rate (increased percentage of cell survival compared with the Group of 5-FU)” value under setting [7] is 67%-74%.

Consider `Cc1cn([C@H]2C[C@H](O)[C@@H](COC(=O)C(C)c3ccc(CC(C)C)cc3)O2)c(=O)[nH]c1=O` (some centres unmarked) [T30], for which the “Cell Survival Rate (increased percentage of cell survival compared with the Group of 5-FU)” value is reported as 39%-47% under setting [2]; 45%-53% under setting [3]; 54%-61% under setting [4]; 44%-51% under setting [5]; 39%-46% under setting [6].

Turning to `Cc1cn([C@H]2C[C@H](O)[C@@H](COC(=O)OCc3ccccc3)O2)c(=O)[nH]c1=O` [T19], under setting [1], the activation at 1 µM was 35 to 45%, the activation at 10 µM is 60 to 70%, the activation at 100 µM lay in the range of 58 to 67% and the activation at 500 µM is 35 to 45%.

On to `Cc1cn([C@H]2C[C@H](OC(=O)OCC(C)(C)C)[C@@H](COC(=O)OCC(C)(C)C)O2)c(=O)[nH]c1=O` [T21], for which, under setting [1], the activation at 1 µM lay within 5 to 13% and the activation at 10 µM is 19 to 26%.

Consider `Cc1cn([C@H]2C[C@H](OC(=O)Oc3ccccc3)[C@@H](COC(=O)Oc3ccccc3)O2)c(=O)[nH]c1=O` [T14], for which, under setting [1], the activation at 1 µM lay in the range of 12 to 20%, the activation at 10 µM lay in the range of 30 to 40% and the activation at 100 µM lay in the range of 8 to 15%.

`Cc1cn([C@H]2C[C@H](OC(=O)NC3CCCC3)[C@@H](COC(=O)NC3CCCC3)O2)c(=O)[nH]c1=O` [T12]: under setting [1], the activation at 1 µM lay within 0 to 5% and the activation at 10 µM lay in the range of 9 to 16%.

As to `Cc1cn([C@H]2C[C@H](O)[C@@H](CO[Si](C)(C)C(C)(C)C)O2)c(=O)[nH]c1=O` [T18], under setting [1], the activation at 1 µM fell in the range of 6 to 12% and the activation at 10 µM lay in the range of 7 to 15%.

Turning to `Cc1cn([C@H]2C[C@H](OC(=O)[C@@H](C)c3ccc(CC(C)C)cc3)[C@@H](COC(=O)[C@@H](C)c3ccc(CC(C)C)cc3)O2)c(=O)[nH]c1=O` [T47], the “Cell Survival Rate (increased percentage of cell survival compared with the Group of 5-FU)” value reads like this: (selected compound final concentration 8 μM) 21%-28%; (selected compound final concentration 16 μM) 35%-42%; (selected compound final concentration 32 μM) 49%-56%; (selected compound final concentration 62.5 μM) 63%-71%; (selected compound final concentration 125 μM) 64%-72%; (selected compound final concentration 250 μM) 44%-51%. Further, the “Cell Survival Rate (increased percentage of cell survival compared with the Group of 5-FU)” value (selected compound final concentration 500 μM) is reported as 24%-31%.

Turning to `Cc1cn([C@H]2C[C@H](OC(=O)OC(C)C)[C@@H](COC(=O)OC(C)C)O2)c(=O)[nH]c1=O` [T22], under setting [1], the activation at 1 µM was 2 to 7%, the activation at 10 µM is 10 to 17% and the activation at 100 µM was 9 to 16%.

With `Cc1cn([C@H]2C[C@H](OC(=O)C3CCCC3)[C@@H](COC(=O)C3CCCC3)O2)c(=O)[nH]c1=O` [T8], under setting [1], the activation at 1 µM lay within 15 to 25%, the activation at 5 µM fell in the range of 27 to 37%, the activation at 10 µM is 35 to 45% and the activation at 50 µM was 32 to 39%. For the same molecule, under setting [1], the activation at 100 µM was 40 to 47% and the activation at 200 µM is 3 to 9%.

Consider `Cc1cn([C@H]2C[C@H](OC(=O)C(C)(C)C)[C@@H](COC(=O)C(C)(C)C)O2)c(=O)[nH]c1=O` [T24], for which, under setting [1], the activation at 1 µM is 27 to 35% and the activation at 10 µM lay within 21 to 27%.

As to `Cc1cn([C@H]2C[C@H](O)[C@@H](CO)O2)c(=O)[nH]c1=O` [thymidine], under setting [1], the activation at 200 µM is 3 to 8%, the activation at 1000 µM lay within 15 to 23% and the activation at 1500 µM was in the range of 11 to 17%. In addition, for the setting “Homo sapiens, HaCaT, increase vs Group of 5-FU, 5-FU 20 μM, compound 2000 μM, 48 h, read-out: Cell Survival Rate”, the activation at 2000 µM lay within 1 to 6%. For the same molecule, the activation at 3000 µM (Homo sapiens, HaCaT, increase vs Group of 5-FU, 5-FU 20 μM, compound 3000 μM, 48 h, read-out: Cell Survival Rate) is -25 to 20%.

In the case of `Cc1cn([C@H]2C[C@H](OC(=O)C3CC3)[C@@H](COC(=O)C3CC3)O2)c(=O)[nH]c1=O` [T9], under setting [1], the activation at 1 µM was -10 to -3%, the activation at 10 µM is 10 to 18%, the activation at 50 µM lay in the range of 24 to 31% and the activation at 200 µM was in the range of 27 to 34%. Under setting [1], the activation at 500 µM was in the range of 30 to 38%, the activation at 1000 µM was in the range of 35 to 40% and the activation at 1500 µM was in the range of 13 to 20%.
